The NIST ThermoML archive (doi:10.1021/acs.jced.9b00179)
± gives the expanded uncertainty stated by the source.

Key:
[1] = refractive index (Na D-line) (dimensionless); settings: 293.15 K; 101.33 kPa; Liquid; Standard Abbe refractometry
[2] = Crystal; DSC
[3] = Molar enthalpy of transition or fusion; settings: Crystal; DSC

Compound | refractive index [1] | Triple point temperature [2] [K] | Molar enthalpy of transition or fusion [3] [kcal/mol]
CCCCO [butan-1-ol] | 1.3986 ± 0.0011 |  | 
CCCO [propan-1-ol] | 1.3852 ± 0.001 |  | 
O [water] | 1.3331 ± 0.001 |  | 
C[C@@H](c1ncncc1F)[C@](O)(Cn1cncn1)c1ccc(F)cc1F [voriconazole] |  | 403.4 ± 1 | 6.43 ± 0.645
CCO [ethanol] | 1.3613 ± 0.0011 |  | 
CC[C@@H]([C@H](C)O)n1ncn(-c2ccc(N3CCN(c4ccc(OC[C@@H]5CO[C@@](Cn6cncn6)(c6ccc(F)cc6F)C5)cc4)CC3)cc2)c1=O [posaconazole] |  | 444.6 ± 1 | 11.4 ± 1.17
CC(C)CO [2-methyl-1-propanol] | 1.3957 ± 0.0011 |  | 
CC(C)O [propan-2-ol] | 1.3774 ± 0.0011 |  | 
O=C(O)c1ccccc1 [benzoic acid] |  | 396.8 ± 1 | 4.19 ± 0.43
CCCC(C)=O [pentan-2-one] | 1.3892 ± 0.0011 |  | 
CCC(C)=O [butanone] | 1.379 ± 0.0011 |  | 
C[S+](C)[O-] [dimethyl sulfoxide] | 1.4791 ± 0.0011 |  | 
CN(C)C=O [dimethylformamide] | 1.4303 ± 0.001 |  | 
